From ChEMBL document CHEMBL1201862, “PubChem BioAssay data set” (2004)
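Cells were grown in 96-well plates and exposed to each compound for 48 hours at five concentrations; endpoints were interpolated linearly between bracketing concentrations, or set to the highest concentration if not reached. Abbreviation: GI50, concentration required for 50% inhibition of growth.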 Calls of active or inactive are those of the source. Cut-off read from the data, not from the text of the source: active = GI50 up to about 1.1 µM and inactive = higher.

What was measured:
Test in all cases: NCI tumour cell line growth inhibition, 48 h
A498 = system: A498
ACHN = system: ACHN
EKVX = system: EKVX
HOP-62 = system: HOP-62
IGROV-1 = system: IGROV-1
K562 = system: K562
M14 = system: M14
NCI-H522 = system: NCI-H522
OVCAR-4 = system: OVCAR-4
RXF 393 = system: RXF 393
SF-268 = system: SF-268
SF-295 = system: SF-295
SK-MEL-28 = system: SK-MEL-28
SK-MEL-2 = system: SK-MEL-2
SN12C = system: SN12C
TK-10 = system: TK-10
UO-31 = system: UO-31
SNB-75 = system: SNB-75

Measured: GI50

O=[N+]([O-])C(=C1c2ccccc2-c2ccccc21)[N+](=O)[O-]
inactive: A498 57.3 µM | ACHN 62.8 µM | EKVX > 100 µM | HOP-62 > 100 µM | IGROV-1 61.5 µM | K562 43.8 µM | M14 > 100 µM | NCI-H522 44.1 µM | OVCAR-4 > 100 µM | RXF 393 > 100 µM | SF-268 20.9 µM | SF-295 > 10 µM | SK-MEL-28 > 100 µM | SK-MEL-2 > 100 µM | SN12C > 100 µM | TK-10 > 100 µM | UO-31 52.4 µM

Cc1cccc(C(C)(C)C)c1NC(=O)CCc1n[nH]c(=S)o1
inactive: A498 > 100 µM | ACHN > 100 µM | EKVX > 100 µM | HOP-62 > 100 µM | IGROV-1 > 100 µM | K562 43.2 µM | M14 > 100 µM | NCI-H522 > 100 µM | OVCAR-4 > 100 µM | SF-268 > 100 µM | SF-295 > 100 µM | SK-MEL-28 > 100 µM | SN12C > 100 µM | SNB-75 > 100 µM | TK-10 > 100 µM | UO-31 > 100 µM

Cn1c(=O)oc2cc(C3CCC(=O)N3Cc3csc(-c4ccccc4)n3)ccc21 (stereo unspecified)
inactive: ACHN > 100 µM | EKVX > 100 µM | HOP-62 > 100 µM | IGROV-1 > 100 µM | K562 64.6 µM | M14 > 100 µM | NCI-H522 > 100 µM | OVCAR-4 > 100 µM | RXF 393 39.9 µM | SF-268 > 100 µM | SF-295 > 100 µM | SK-MEL-28 > 100 µM | SK-MEL-2 > 100 µM | SN12C > 100 µM | SNB-75 25.3 µM | TK-10 > 100 µM | UO-31 52.5 µM

CC(=O)O[C@H]1CC[C@@]2(C)C(=CC[C@H]3C(CC#N)[C@@](C)(C#N)CCC32)C1 (stereo partly specified)
inactive: A498 38.5 µM | ACHN > 100 µM | EKVX > 100 µM | HOP-62 > 100 µM | IGROV-1 > 100 µM | K562 > 100 µM | M14 > 100 µM | OVCAR-4 > 100 µM | RXF 393 > 100 µM | SF-268 > 100 µM | SF-295 > 100 µM | SK-MEL-28 > 100 µM | SK-MEL-2 > 100 µM | SN12C > 100 µM | SNB-75 69.8 µM | TK-10 > 100 µM | UO-31 > 100 µM

O=CN1CCN(C=S)CC1
inactive: A498 > 100 µM | ACHN > 100 µM | EKVX > 100 µM | HOP-62 > 100 µM | IGROV-1 > 100 µM | K562 > 100 µM | M14 > 100 µM | NCI-H522 > 100 µM | OVCAR-4 > 100 µM | RXF 393 > 100 µM | SF-268 > 100 µM | SF-295 > 100 µM | SK-MEL-28 > 100 µM | SN12C > 100 µM | SNB-75 > 100 µM | TK-10 > 100 µM | UO-31 > 100 µM

COc1ccc(NC(=O)CC2S/C(=N\c3ccccc3C)NC2=O)c([N+](=O)[O-])c1 (stereo unspecified)
inactive: ACHN > 100 µM | HOP-62 > 100 µM | IGROV-1 > 100 µM | K562 > 100 µM | M14 > 100 µM | NCI-H522 25.4 µM | OVCAR-4 > 100 µM | SF-268 > 100 µM | SF-295 > 100 µM | SK-MEL-28 > 100 µM | SK-MEL-2 > 100 µM | SN12C > 100 µM | SNB-75 > 100 µM | TK-10 > 100 µM | UO-31 > 100 µM

NC(CCCCNCc1ccccc1O)C(=O)O (stereo unspecified)
inactive: A498 > 100 µM | ACHN > 100 µM | EKVX > 100 µM | HOP-62 > 100 µM | IGROV-1 > 100 µM | K562 > 100 µM | M14 > 100 µM | NCI-H522 > 100 µM | OVCAR-4 > 100 µM | SF-268 > 100 µM | SF-295 > 100 µM | SK-MEL-28 > 100 µM | SK-MEL-2 > 100 µM | SN12C > 100 µM | SNB-75 93.5 µM | TK-10 > 100 µM | UO-31 > 100 µM

N#CCCN(c1ccc(/C=C2\N=C(c3ccc(Cl)cc3)OC2=O)cc1)S(=O)(=O)c1ccccc1
inactive: A498 > 100 µM | ACHN > 100 µM | EKVX > 100 µM | HOP-62 > 100 µM | IGROV-1 > 100 µM | K562 > 100 µM | M14 > 100 µM | NCI-H522 > 100 µM | OVCAR-4 > 100 µM | SF-268 > 100 µM | SF-295 > 100 µM | SK-MEL-28 > 100 µM | SK-MEL-2 > 100 µM | SN12C > 100 µM | SNB-75 76 µM | TK-10 > 100 µM | UO-31 > 100 µM

O=c1c2cccnc2ncn1CCCN1CCOCC1
inactive: ACHN > 100 µM | EKVX > 100 µM | HOP-62 > 100 µM | IGROV-1 > 100 µM | K562 > 100 µM | M14 > 100 µM | NCI-H522 > 100 µM | OVCAR-4 > 100 µM | RXF 393 > 100 µM | SF-268 > 100 µM | SF-295 > 100 µM | SK-MEL-28 > 100 µM | SK-MEL-2 > 10 µM | SN12C > 100 µM | SNB-75 > 100 µM | TK-10 > 100 µM | UO-31 > 100 µM

COc1cc(-c2n[nH]cc2CCCC(=O)Nc2ccccc2[N+](=O)[O-])ccc1O
inactive: A498 > 100 µM | ACHN > 100 µM | EKVX 64.9 µM | HOP-62 > 100 µM | IGROV-1 > 100 µM | K562 29.6 µM | M14 50.9 µM | NCI-H522 94 µM | OVCAR-4 > 100 µM | SF-268 > 100 µM | SF-295 > 100 µM | SK-MEL-28 > 100 µM | SN12C > 100 µM | SNB-75 20.8 µM | TK-10 > 100 µM | UO-31 79.8 µM

CC1C=C(OC(=O)c2ccccc2)C(=O)C(n2cc(F)c(=O)[nH]c2=O)O1 (stereo unspecified)
inactive: A498 > 100 µM | ACHN 59.7 µM | EKVX > 100 µM | HOP-62 27.8 µM | IGROV-1 > 100 µM | K562 76 µM | M14 51.3 µM | NCI-H522 > 100 µM | OVCAR-4 53.2 µM | SF-268 > 100 µM | SF-295 > 100 µM | SK-MEL-28 53.1 µM | SK-MEL-2 79.3 µM | SN12C > 100 µM | SNB-75 > 100 µM | TK-10 > 100 µM | UO-31 87.7 µM

CC(C)CC(CNC(Cc1ccc(Cl)cc1)C(N)=O)NC(=O)C(Cc1c[nH]cn1)NC(=O)CNC(=O)C(NC(=O)C(C)NC(=O)C(Cc1c[nH]c2ccccc12)NC(=O)C(CCC(=O)O)NC(=O)C(N)Cc1ccccc1)C(C)C (stereo unspecified)
inactive: A498 > 133 µM | ACHN > 133 µM | EKVX > 133 µM | HOP-62 > 133 µM | IGROV-1 > 133 µM | K562 > 133 µM | OVCAR-4 > 133 µM | RXF 393 > 133 µM | SF-295 > 133 µM | SK-MEL-28 > 133 µM | SK-MEL-2 > 133 µM | SN12C > 133 µM | SNB-75 > 133 µM | UO-31 8.17 µM

O=c1c2ccccc2[nH]c(=S)n1-c1ccc(Br)cc1
inactive: A498 51.6 µM | ACHN 42.5 µM | EKVX > 100 µM | HOP-62 > 100 µM | IGROV-1 71.4 µM | K562 43 µM | NCI-H522 43.1 µM | OVCAR-4 44.8 µM | RXF 393 > 100 µM | SF-268 90.8 µM | SF-295 66.8 µM | SK-MEL-28 > 100 µM | SK-MEL-2 > 100 µM | SN12C > 100 µM | SNB-75 30.7 µM | TK-10 > 100 µM | UO-31 92.5 µM

O=C(Cc1nc2ccccc2s1)C(=O)Nc1ccc(Cl)cc1
inactive: A498 > 100 µM | ACHN > 100 µM | EKVX > 100 µM | HOP-62 > 100 µM | IGROV-1 > 100 µM | K562 > 100 µM | M14 > 100 µM | NCI-H522 > 100 µM | OVCAR-4 > 100 µM | SF-268 > 100 µM | SF-295 > 100 µM | SK-MEL-28 > 100 µM | SK-MEL-2 > 100 µM | SN12C > 100 µM | SNB-75 > 100 µM | TK-10 > 100 µM | UO-31 > 100 µM

COc1ccc(/C=C/c2cc(OC)c(OC(C)=O)c(OC)c2)cc1
inactive: ACHN 33 µM | EKVX 28.1 µM | HOP-62 25.9 µM | IGROV-1 36.8 µM | M14 34.6 µM | NCI-H522 19.5 µM | OVCAR-4 45.9 µM | SF-268 29.1 µM | SK-MEL-28 9.68 µM | SK-MEL-2 37.2 µM | SN12C 24.3 µM | SNB-75 18.5 µM | UO-31 20.3 µM

c1ccc2c(c1)Cc1c(Cc3csc4ccccc34)ccc3cccc-2c13
inactive: ACHN > 100 µM | EKVX > 100 µM | HOP-62 > 100 µM | IGROV-1 > 100 µM | K562 45.9 µM | M14 > 100 µM | NCI-H522 41.3 µM | OVCAR-4 54 µM | RXF 393 > 100 µM | SF-268 > 100 µM | SF-295 > 100 µM | SK-MEL-28 > 100 µM | SK-MEL-2 > 100 µM | SN12C > 100 µM | SNB-75 19.7 µM | TK-10 > 10 µM | UO-31 > 100 µM
